Test results as given in patent publication US8143257B2, “Substituted phenols as active agents inhibiting VEGF production” (PTC Therapeutics, Inc., priority 2004, dated 2012).

These molecules were tested on hypoxia-inducible endogenous VEGF expression (assay: Assay to evaluate effect on hypoxia-inducible endogenous VEGF expression (VEGF ELISA, HeLa cells)). Conditions: HeLa cells cultured 24-48 hours under hypoxic conditions (1% O2, 5% CO2); VEGF in conditioned media by ELISA; read-out: ELISA EC50 (effective concentration required to lower the amount of VEGF translation by 50%).
Assay type: cell-based
Procedure: Assay to Evaluate Effect on Hypoxia-Inducible Endogenous VEGF Expression
The ability of the compounds of the invention to modulate hypoxia-inducible endogenous VEGF expression is analyzed as follows. VEGF protein levels are monitored by an ELISA assay (R&D Systems). Briefly, HeLa cells are cultured for 24-48 hours under hypoxic conditions (1% O2, 5% CO2, balanced with nitrogen) in the presence or absence of a compound of the invention. The conditioned media is then assayed by ELISA, and the concentration of VEGF is calculated from the standard ELISA curve of each assay.
A dose-response analysis is performed using the ELISA assay and conditions described above. A series of, e.g., seven different concentrations are analyzed. In parallel, a dose-response cytotoxicity assay is performed using Cell Titer Glo (Promega) under the same conditions as the ELISA to ensure that the inhibition of VEGF expression is not due to the cytotoxicity. Dose-response curves are plotted using percentage inhibition versus concentration of the compound, and EC50 and CC50 values are generated for each compound with the maximal inhibition set as 100% and the minimal inhibition as 0%.
The most preferred compounds of the invention are those with μM values of 3 or less.

Structure (SMILES) | EC50 [µM]
O=C(Oc1ccccc1Br)N1CCCC1 [Pyrrolidine-1-carboxylic acid 2-bromo-phenyl ester] | > 30
Cc1ccc2cc(OC(=O)N3CCCC3)ccc2n1 [Pyrrolidine-1-carboxylic acid 2-methyl-quinolin-6-yl ester] | > 30

Same assay, conditions: Homo sapiens, HeLa, read-out: ELISA EC50 (effective concentration required to lower the amount of VEGF translation by 50%)

Structure (SMILES) | EC50 [µM]
CN(C)C(=O)Oc1ccc2cc(Br)ccc2c1 [Dimethyl-carbamic acid 6-bromo-naphthalen-2-yl ester] | > 10
CN(C(=O)Oc1ccc2cc(Br)ccc2c1)c1ccccc1 [Methyl-phenyl-carbamic acid 6-bromo-naphthalen-2-yl ester] | > 10
CN(C(=O)Oc1ccc2ccccc2c1)c1ccccc1 [Methyl-phenyl-carbamic acid naphthalen-2-yl ester] | > 10

Same assay, conditions: Homo sapiens; HeLa cells cultured 24-48 hours under hypoxic conditions (1% O2, 5% CO2); VEGF in conditioned media by ELISA; read-out: ELISA EC50 (effective concentration required to lower the amount of VEGF translation by 50%)

Structure (SMILES) | EC50 [µM]
O=C(Oc1ccc2cc(Br)ccc2c1Br)N1CCOCC1 [Morpholine-4-carboxylic acid 1,6-dibromo-naphthalen-2-yl ester] | > 30
O=C(Oc1ccc2ccccc2c1Br)N1CCOCC1 [Morpholine-4-carboxylic acid 1-bromo-naphthalen-2-yl ester] | 0.999
O=C(Oc1ccc2cc(Br)ccc2c1)N1CCOCC1 [Morpholine-4-carboxylic acid 6-bromo-naphthalen-2-yl ester] | > 10
CS(=O)(=O)Nc1c(O)ccc2ccccc12 [N-(2-Hydroxy-naphthalen-1-yl)-methanesulfonamide] | > 5
O=C(Oc1ccc2ccccc2c1Br)N1CCCCC1 [Piperidine-1-carboxylic acid 1-bromo-naphthalen-2-yl ester] | 0.27
O=C(Nc1ccc2ccccc2c1Br)N1CCCCC1 [Piperidine-1-carboxylic acid (1-bromo-naphthalen-2-yl)-amide] | > 10
O=C(Nc1ccc2ccccc2c1Cl)N1CCCCC1 [Piperidine-1-carboxylic acid (1-chloro-naphthalen-2-yl)-amide] | > 10
O=C(Nc1ccc2ccccc2c1)N1CCCCC1 [Piperidine-1-carboxylic acid naphthalen-2-ylamide] | > 10

Other lines, results leading:

EC50 [µM] | Structure (SMILES)
> 30 | O=C(Oc1ccc2cc(Br)ccc2c1Br)N1CCCCC1 [Piperidine-1-carboxylic acid 1,6-dibromo-naphthalen-2-yl ester]
> 5 | CS(=O)(=O)Nc1c(OC(=O)N2CCCCC2)ccc2ccccc12 [Piperidine-1-carboxylic acid 1-methanesulfonylamino-naphthalen-2-yl ester]
18.2 | O=C(Oc1cc(Cl)c(Cl)cc1Cl)N1CCCCC1 [Piperidine-1-carboxylic acid 2,4,5-trichloro-phenyl ester]
> 30 | O=C(Oc1c(Cl)cc(Cl)cc1Cl)N1CCCCC1 [Piperidine-1-carboxylic acid 2,4,6-trichloro-phenyl ester]
> 30 | O=C(Oc1ccccc1Br)N1CCCCC1 [Piperidine-1-carboxylic acid 2-bromo-phenyl ester]
> 30 | Cc1ccc2cc(OC(=O)N3CCCCC3)ccc2n1 [Piperidine-1-carboxylic acid 2-methyl-quinolin-6-yl ester]
2.22 | O=C(Oc1ncc2ccccc2c1Cl)N1CCCCC1 [Piperidine-1-carboxylic acid 4-chloro-isoquinolin-3-yl ester]
> 10 | O=C(Oc1ccc2cc(Br)ccc2c1)N1CCCCC1 [Piperidine-1-carboxylic acid 6-bromo-naphthalen-2-yl ester]
> 30 | O=C(Oc1cc2ccccc2cn1)N1CCCCC1 [Piperidine-1-carboxylic acid isoquinolin-3-yl ester]
> 10 | O=C(Oc1ccc2ccccc2c1)N1CCCCC1 [Piperidine-1-carboxylic acid naphthalen-2-yl ester]
> 30 | CC(=O)c1c(OC(=O)N2CCCC2)ccc2ccccc12 [Pyrrolidine-1-carboxylic acid 1-acetyl-naphthalen-2-yl ester]
> 30 | O=C(Oc1cc(Cl)c(Cl)cc1Cl)N1CCCC1 [Pyrrolidine-1-carboxylic acid 2,4,5-trichloro-phenyl ester]
23 | O=C(Oc1c(Cl)cc(Cl)cc1Cl)N1CCCC1 [Pyrrolidine-1-carboxylic acid 2,4,6-trichloro-phenyl ester]
> 30 | Cc1ccc(OC(=O)N2CCCC2)c(Br)c1 [Pyrrolidine-1-carboxylic acid 2-bromo-4-methyl-phenyl ester]
> 30 | O=C(Oc1cc2ccccc2cn1)N1CCCC1 [Pyrrolidine-1-carboxylic acid isoquinolin-3-yl ester]
